Structures can show the parent of a compound that is named as a salt.
Tested on: SU-DHL-4 cells
Assay: Inhibitory effect on cell viability (Cell Counting Kit-8)
Type: cell-based
Conditions: Homo sapiens, 72 hours culture with test compound, concentration showing 90% inhibition rate of cell viability
In short: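 IC90 corresponds to 90% loss of viability, measured as CCK-8 absorbance at 450 nm (2-3 h colour development). Compounds in 9 dilutions (0.1% DMSO) were applied for 72 h at 37° C to SU-DHL-4 lymphoma cells seeded at 2000/well in RPMI1640/10% FBS after 18-25 h preculture.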

| SMILES | IC90 |
| --- | --- |
| CCC(=O)N1c2ccccc2[C@H](NCC2CCN(C(=O)N3CC(C(=O)Nc4ccc(N[C@@H]5C[C@H](C)N(C(=O)CC)c6ccccc65)cc4)C3)CC2)C[C@@H]1C (relative stereo) [Compound 10p, 1-(4-((((2S*,4R*)-2-Methyl-1-propionyl-1,2,3,4-tetrahydroquinolin-4-yl)amino)methyl)piperidine-1-carbonyl)-N-(4-(((2S,4R)-2-methyl-1-propionyl-1,2,3,4-tetrahydroquinolin-4-yl)amino)phenyl)azetidine-3-carboxamide] | 47.5 nM |
| CCC(=O)N1c2ccccc2[C@H](Nc2ccc(C(=O)NC3CCN(C(=O)c4ccc(N[C@@H]5C[C@H](C)N(C(=O)CC)c6ccccc65)cc4)CC3)cc2)C[C@@H]1C (relative stereo) [Compound 1c, 4-{[(2S*,4R*)-2-Methyl-1-propionyl-1,2,3,4-tetrahydroquinolin-4-yl]amino}-N-[1-(4-{[(2S*,4R*)-2-methyl-1-propionyl-1,2,3,4-tetrahydroquinolin-4-yl]amino}benzoyl)piperidin-4-yl]benzamide] | 7.85 nM |
| CCC(=O)N1c2ccccc2[C@H](Nc2ccc(-c3nnc(CNC(=O)c4ccc(Cn5c(C(=O)OCCN(C)C)cc6c5CCCC6=O)cc4)o3)cc2)C[C@@H]1C [Compound 15b, 2-(Dimethylamino)ethyl 1-(4-(((5-(4-(((2S,4R)-2-methyl-1-propionyl-1,2,3,4-tetrahydroquinolin-4-yl)amino)phenyl)-1,3,4-oxadiazol-2-yl)methyl)carbamoyl)benzyl)-4-oxo-4,5,6,7-tetrahydro-1H-indole-2-carboxylate] | 1.07 nM |
| CCC(=O)N1c2ccccc2[C@H](Nc2ccc(CNCC(=O)Nc3ccc(N[C@@H]4C[C@H](C)N(C(=O)CC)c5ccccc54)cc3)cc2)C[C@@H]1C [Compound 5i, 2-((4-(((2S,4R)-2-Methyl-1-propionyl-1,2,3,4-tetrahydroquinolin-4-yl)amino)benzyl)amino)-N-(4-(((2S,4R)-2-methyl-1-propionyl-1,2,3,4-tetrahydroquinolin-4-yl)amino)phenyl)acetamide hydrochloride] | 4.49 nM |
| CCC(=O)N1c2ccccc2[C@H](Nc2ccc(NC(=O)C3CN(C(=O)C4CCN(Cc5cc(O)cc(-c6c(C)noc6C)c5)CC4)C3)cc2)C[C@@H]1C [Compound 12b, 1-(1-(3-(3,5-Dimethylisoxazol-4-yl)-5-hydroxybenzyl)piperidine-4-carbonyl)-N-(4-(((2S,4R)-2-methyl-1-propionyl-1,2,3,4-tetrahydroquinolin-4-yl)amino)phenyl)azetidine-3-carboxamide] | 4.35 nM |
| CCC(=O)N1c2ccccc2[C@H](Nc2ccc(C(=O)NCC#CC(=O)N3CCC(N[C@@H]4C[C@H](C)N(C(=O)CC)c5ccccc54)CC3)cc2)C[C@@H]1C [Compound 10c, 4-(((2S,4R)-2-Methyl-1-propionyl-1,2,3,4-tetrahydroquinolin-4-yl)amino)-N-(4-(4-(((2S,4R)-2-methyl-1-propionyl-1,2,3,4-tetrahydroquinolin-4-yl)amino)piperidin-1-yl)-4-oxobut-2-yn-1-yl)benzamide] | 0.13 nM |
| CCC(=O)N1c2ccccc2[C@H](Nc2ccc(C(=O)NCc3cn(-c4ccc(C5=NCc6nnc(C)n6-c6sc(C)c(C)c65)cc4)nn3)cc2)C[C@@H]1C [Compound 14q, 4-(((2S,4R)-2-Methyl-1-propionyl-1,2,3,4-tetrahydroquinolin-4-yl)amino)-N-((1-(4-(2,3,9-trimethyl-6H-thieno[3,2-f][1,2,4]triazolo[4,3-a][1,4]diazepin-4-yl)phenyl)-1H-1,2,3-triazol-4-yl)methyl)benzamide] | 0.17 nM |
| CCC(=O)N1c2ccccc2[C@H](NCCCC2CCN(C(=O)Nc3ccc(N[C@@H]4C[C@H](C)N(C(=O)CC)c5ccccc54)cc3)CC2)C[C@@H]1C (relative stereo) [Compound 12d, N-(4-(((2S,4R)-2-Methyl-1-propionyl-1,2,3,4-tetrahydroquinolin-4-yl)amino)phenyl)-4-(3-(((2S*,4R*)-2-methyl-1-propionyl-1,2,3,4-tetrahydroquinolin-4-yl)amino)propyl)piperidine-1-carboxamide] | 34.9 nM |
| CCC(=O)N1c2ccccc2[C@H](Nc2ccc(C(=O)N3CCn4c(-c5ccc(N[C@@H]6C[C@H](C)N(C(=O)CC)c7ccccc76)cc5)cnc4C3)cc2)C[C@@H]1C [Compound 3e, 1-[(2S,4R)-2-Methyl-4-({4-[3-(4-{[(2S,4R)-2-methyl-1-propionyl-1,2,3,4-tetrahydroquinolin-4-yl]amino}phenyl)-5,6,7,8-tetrahydroimidazo[1,2-a]pyrazine-7-carbonyl]phenyl}amino)-3,4-dihydroquinolin-1(2H)-yl]propan-1-one] | 0.12 nM |
| CCC(=O)N1c2ccccc2[C@H](Nc2ccc(C(=O)N3CCn4c(C(O)c5ccc(N[C@@H]6C[C@H](C)N(C(=O)CC)c7ccccc76)cc5)cnc4C3)cc2)C[C@@H]1C (stereo partly drawn) [Compound 6a, 1-((2S,4R)-4-((4-(3-(Hydroxy(4-(((2S,4R)-2-methyl-1-propionyl-1,2,3,4-tetrahydroquinolin-4-yl)amino)phenyl)methyl)-5,6,7,8-tetrahydroimidazo[1,2-a]pyrazine-7-carbonyl)phenyl)amino)-2-methyl-3,4-dihydroquinolin-1(2H)-yl)propan-1-one] | 0.89 nM |
| CCC(=O)N1c2ccccc2[C@H](Nc2ccc(OCCNC(=O)c3ccc(N[C@@H]4C[C@H](C)N(C(=O)CC)c5ccccc54)cc3)cc2)C[C@@H]1C [Compound 5n, 4-(((2S,4R)-2-Methyl-1-propionyl-1,2,3,4-tetrahydroquinolin-4-yl)amino)-N-(2-(4-(((2S,4R)-2-methyl-1-propionyl-1,2,3,4-tetrahydroquinolin-4-yl)amino)phenoxy)ethyl)benzamide] | 8.83 nM |
| CCC(=O)N1c2ccccc2[C@H](Nc2ccc(CN3CC(C(=O)Nc4ccc(N[C@@H]5C[C@H](C)N(C(=O)CC)c6ccccc65)cc4)C3)cc2)C[C@@H]1C [Compound 6d, 1-(4-(((2S,4R)-2-Methyl-1-propionyl-1,2,3,4-tetrahydroquinolin-4-yl)amino)benzyl)-N-(4-(((2S,4R)-2-methyl-1-propionyl-1,2,3,4-tetrahydroquinolin-4-yl)amino)phenyl)azetidine-3-carboxamide] | 5.08 nM |
| CCC(=O)N1c2ccccc2[C@H](Nc2ccc(C(=O)NC3CN(C(=O)c4ccc(N[C@@H]5C[C@H](C)N(C(=O)CC)c6ccccc65)cc4)C3)cc2)C[C@@H]1C (relative stereo) [Compound 1g, 4-{[(2S*,4R*)-2-Methyl-1-propionyl-1,2,3,4-tetrahydroquinolin-4-yl]amino}-N-[1-(4-{[(2S*,4R*)-2-methyl-1-propionyl-1,2,3,4-tetrahydroquinolin-4-yl]amino}benzoyl)azetidin-3-yl]benzamide] | 10.6 nM |
| CCC(=O)N1c2ccccc2[C@H](Nc2ccc(NC(=O)NCC(=O)Nc3ccc(C4=NCc5nnc(C)n5-c5sc(C)c(C)c54)cc3)cc2)C[C@@H]1C [Compound 14h, 2-(3-(4-(((2S,4R)-2-Methyl-1-propionyl-1,2,3,4-tetrahydroquinolin-4-yl)amino)phenyl)ureido)-N-(4-(2,3,9-trimethyl-6H-thieno[3,2-f][1,2,4]triazolo[4,3-a][1,4]diazepin-4-yl)phenyl)acetamide] | 0.34 nM |
| CCC(=O)N1c2ccccc2[C@H](Nc2ccc(C(=O)N3CC4CC3CN4C(=O)c3ccc(N[C@@H]4C[C@H](C)N(C(=O)CC)c5ccccc54)cc3)cc2)C[C@@H]1C [Compound 1k, 1,1′-{(2S,2′S,4R,4′R)-{[(2,5-Diazabicyclo[2.2.1]heptane-2,5-dicarbonyl)bis(4,1-phenylene)]bis(azanediyl)}bis[2-methyl-3,4-dihydroquinoline-4,1(2H)-diyl]}bis(propan-1-one)] | 0.55 nM |
| CCC(=O)N1c2ccccc2[C@H](Nc2ccc(NC(=O)CNC(=O)Nc3ccc(C4=NCc5nnc(C)n5-c5sc(C)c(C)c54)cc3)cc2)C[C@@H]1C [Compound 14f, N-(4-(((2S,4R)-2-Methyl-1-propionyl-1,2,3,4-tetrahydroquinolin-4-yl)amino)phenyl)-2-(3-(4-(2,3,9-trimethyl-6H-thieno[3,2-f][1,2,4]triazolo[4,3-a][1,4]diazepin-4-yl)phenyl)ureido)acetamide] | 0.31 nM |
| CCC(=O)N1c2ccccc2[C@H](Nc2ccc(NC(=O)CCCC(=O)Nc3ccc(N[C@@H]4C[C@H](C)N(C(=O)CC)c5cc(C6=CCNCC6)ccc54)cc3)cc2)C[C@@H]1C (relative stereo) [Compound 10u, N^1-(4-(((2S,4R)-2-Methyl-1-propionyl-1,2,3,4-tetrahydroquinolin-4-yl)amino)phenyl)-N^5-(4-(((2S*,4R*)-2-methyl-1-propionyl-7-(1,2,3,6-tetrahydropyridin-4-yl)-1,2,3,4-tetrahydroquinolin-4-yl)amino)phenyl)glutaramide] | 15.9 nM |
| CCC(=O)N1c2ccccc2[C@H](Nc2ccc(C(=O)NCc3nnc(-c4ccc(N[C@@H]5C[C@H](C)N(C(=O)CC)c6ccccc65)cc4)o3)cc2)C[C@@H]1C [Compound 3c, 4-{[(2S,4R)-2-Methyl-1-propionyl-1,2,3,4-tetrahydroquinolin-4-yl]amino}-N-{[5-(4-{[(2S,4R)-2-methyl-1-propionyl-1,2,3,4-tetrahydroquinolin-4-yl]amino}phenyl)-1,3,4-oxadiazol-2-yl]methyl}benzamide] | 0.11 nM |
| CCC(=O)N1c2ccccc2[C@H](Nc2ccc(NS(=O)(=O)CCNC(=O)c3ccc(N[C@@H]4C[C@H](C)N(C(=O)CC)c5ccccc54)cc3)cc2)C[C@@H]1C [Compound 6g, 4-(((2S,4R)-2-Methyl-1-propionyl-1,2,3,4-tetrahydroquinolin-4-yl)amino)-N-(2-(N-(4-(((2S,4R)-2-methyl-1-propionyl-1,2,3,4-tetrahydroquinolin-4-yl)amino)phenyl)sulfamoyl)ethyl)benzamide] | 0.31 nM |
